The text below walks through data of patent US20130183239A1, “ISOTOPIC CARBON CHOLINE ANALOGS” (IMPERIAL COLLEGE, priority 2010, published 2013).

For data set [1], the system named is human melanoma SKMEL-28 xenografts. The conditions noted are these: mouse, in vivo. As for the experimental part:
Dynamic [^18F]FCH and [^18F]D4-FCH imaging scans were carried out on a dedicated small animal PET scanner, quad-HIDAC (Oxford Positron Systems). The features of this instrument have been described previously (Barthel, H., et al., Cancer Res 2003; 63(13):3791-8). For scanning the tail veins, vehicle- or drug-treated mice were cannulated after induction of anesthesia (isofluorane/O2/N2O). The animals were placed within a thermostatically controlled jig (calibrated to provide a rectal temperature of ˜37° C.) and positioned prone in the scanner. [^18F]FCH or [^18F]D4-FCH (2.96-3.7 MBq) was injected via the tail vein cannula and scanning commenced. Dynamic scans were acquired in list mode format over a 60 min period as reported previously (Leyton, J., et al., Cancer Research 2006; 66(15):7621-9). The acquired data were sorted into 0.5 mm sinogram bins and 19 time frames (0.5×0.5×0.5 mm voxels; 4×15, 4×60, and 11×300 s) for image reconstruction, which was done by filtered back-projection using a two-dimensional Hamming filter (cutoff 0.6). The image data sets were visualized using the Analyze software (version 6.0; Biomedical Imaging Resource, Mayo Clinic). Cumulative images of 30 to 60 min dynamic data were used for visualization of radiotracer uptake and to draw regions of interest. Regions of interest were defined manually on five adjacent tumor regions (each 0.5 mm thickness). Dynamic data from these slices were averaged for each tissue (liver, kidney, muscle, urine, and tumor) and at each of the 19 time points to obtain time versus radioactivity curves. Corresponding whole body time versus radioactivity curves representing injected radioactivity were obtained by adding together radioactivity in all 200×160×160 reconstructed voxels. Tumor radioactivity was normalized to whole-body radioactivity and expressed as percent injected dose per voxel (% ID/vox). The normalized uptake of radiotracer at 60 min (% ID/vox60) was used for subsequent comparisons. The average of the normalized maximum voxel intensity across five slices of tumor % IDvox60max was also use for comparison to account for tumor heterogeneity and existence of necrotic regions in tumor. The area under the curve was calculated as the integral of % ID/vox from 0 to 60 min.

Data set [2] concerns prostate adenocarcinoma PC3-M tumors. On the set-up: AUC: unit not given beside the values. As for the experimental part:
Dynamic ^11C-choline, ^11C-D4-choline and ^18F-D4-choline imaging scans were carried out on a dedicated small animal PET scanner (Siemens Inveon PET module, Siemens Medical Solutions USA, Inc., Malvem, Pa., USA) following a bolus i.v. injection in tumor-bearing mice of either ˜3.7 MBq for ^18F studies, or ˜18.5 MBq for ^11C. Dynamic scans were acquired in list mode format over 60 min. The acquired data were then sorted into 0.5 mm sinogram bins and 19 time frames for image reconstruction (4×15 s, 4×60 s, and 11×300 s), which was done by filtered back projection. For input function analysis, data were sorted into 25 time frames for image reconstruction (8×5 s, 1×20 s, 4×40 s, 1×80 s, and 11×300 s). The Siemens Inveon Research Workplace software was used for visualization of radiotracer uptake in the tumor; 30 to 60 min cumulative images of the dynamic data were employed to define 3-dimensional (3D) regions of interest (ROIs). Arterial input function was estimated as follows: a single voxel 3D ROI was manually drawn in the center of the heart cavity using 2 to 5 min cumulative images. Care was taken to minimize ROI overlap with the myocardium. The count densities were averaged for all ROIs at each time point to obtain a time versus radioactivity curve (TAC). Tumor TACs were normalized to injected dose, measured by a VDC-304 dose calibrator (Veenstra Instruments, Joure, The Netherlands), and expressed as percentage injected dose per mL tissue. The area under the TAC, calculated as the integral of % ID/mL from 0-60 min, and the normalized uptake of radiotracer at 60 min (% ID/mL60) were also used for comparisons.
For PET imaging, tumors were grown to 100 mm^3 prior to imaging.
A 2-tissue irreversible compartmental model was employed to fit the TACs, as has been previously established for ^11C-choline (Kenny L M, Contractor K B, Hinz R, et al. Reproducibility of [11C]choline-positron emission tomography and effect of trastuzumab. Clin Cancer Res. Aug. 15 2010; 16(16):4236-4245; and Sutinen E, Nurmi M, Roivainen A, et al. Kinetics of [(11)C]choline uptake in prostate cancer: a PET study. Eur J Nucl Med Mol. Imaging. March 2004; 31(3):317-324). An estimate of the whole blood TAC (wbTAC(t)) was derived from the PET image itself, as described above. […] Therefore it was fitted with a sum of 3 exponentials from the peak on and the fitted function was used as input function in the kinetic modeling (after metabolite correction, see below). […] The pf values were fitted to a sum of two exponentials with the constraint pf(t=0)=1 to obtain the function pf(t). The parent whole blood TAC wbTACPAR(t) was then computed by multiplying wbTAC(t) and pf(t) and used as input function to estimate the parameters K1 (mL/cm^3/min), k2 (1/min), k3 (1/min) and Vb (unitless). The steady state net irreversible uptake rate constant Ki (mL/cm^3/min) was calculated from the estimated microparameters as K1k3/(k2+k3).

A short description of data set [3]: Potassium permanganate oxidation study. The format is physicochemical. The note with it: 1 hour post-treatment with potassium permanganate, room temperature, radio-HPLC. The source says:
Reagents and Conditions: i) KMnO4, Na2CO3, H2O, rt.

[4] abbreviates: PC3-M tumors, 2-tissue irreversible model.

Take `[2H]C([2H])(O)C([2H])([2H])[N+](C)(C)C[18F]` [[^18F]D4-FCH, [^18F]fluoromethyl-[1,2-^2H4]-choline]: in data set [1], the “% IDvox60max (average of maximum pixel % ID/vox60 across 5 slices)” value was “significantly higher” and the “tumor area under the time versus radioactivity curve (AUC)” value is “higher”. Besides, in data set [2] (setting [4]), the “K1′” value came to 0.090 ± 0.007, the Ki was found to be 0.009 ± 0.002 mL/cm^3/min and the k3 came out at 0.040 ± 0.006 min⁻¹. In data set [2] (mouse, in vivo), the AUC worked out at 121.3 ± 3.1; the NUV60 was determined as 1.97 ± 0.07 % ID/mL; the “increase in % ID/mLmax, smaller versus larger tumors” value is listed as 1.4 fold; the “increase in normalized uptake at 60 min, smaller versus larger tumors” value was 2.4 fold. Further, in data set [2] (mouse, in vivo), the “time to maximal tumor-specific radioactivity” value is not above 5 min. In data set [3], the “parent compound still present” value is listed as approximately 80%.
